Experimental data from ChEMBL document CHEMBL1137255, “HIV-1 protease mutations and inhibitor modifications monitored on a series of complexes. Structural basis for the effect of the A71V mutation on the active site” (J Med Chem, 2006).
pKi: −log10 of the molar value.

Columns and labels:
[1] = target: T1, Human immunodeficiency virus type 1 protease (Human immunodeficiency virus 1, UniProt Q72874); test: Inhibition of wild type HIV1 protease
[2] = target: T1, Human immunodeficiency virus type 1 protease; test: Inhibition of HIV1 protease I8 mutant

`CC(C)(C)OC(=O)N[C@@H](Cc1ccccc1)[C@@H](O)C[C@@H](Cc1ccccc1)C(=O)N[C@@H](CCC(N)=O)C(=O)N[C@@H](Cc1ccccc1)C(N)=O` gave a pKi [1] of 10.70 and a pKi [2] of 9.59.

`CC(C)(C)OC(=O)N[C@@H](Cc1ccccc1)[C@@H](O)CN[C@@H](Cc1ccccc1)C(=O)N[C@@H](CCC(=O)O)C(=O)N[C@@H](Cc1ccccc1)C(N)=O` showed a pKi [1] of 9.82 and a pKi [2] of 7.07.

For `CC(C)(C)OC(=O)N[C@@H](Cc1ccccc1)[C@@H](O)CN[C@@H](Cc1ccccc1)C(=O)N[C@@H](CCC(N)=O)C(=O)N[C@@H](Cc1ccccc1)C(N)=O`, the pKi [1] was 7.48 and the pKi [2] was 6.00.
